Data published in patent US6631283B2 (priority 2000, dated 2003).

System: Vero cells
Type: cell-based

## Chlorin e6 [free Ce6]
  cell-associated Ce6-specific fluorescence (delivery of Ce6 to cells): no detectable Ce6-specific fluorescence
